Test results as given in PubChem BioAssay (NCI).
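Results reflect a 48-hour exposure of cells in 96-well plates to compound at five concentrations. At the TGI there is no net growth.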

What was measured:
Assay in all cases: growth of human tumour cells (NCI), 48 h
A549 NSCLC = test system: A549 NSCLC
ACHN renal = test system: ACHN renal
CCRF-CEM leukemia = test system: CCRF-CEM leukemia
COLO 205 colon = test system: COLO 205 colon
DLD-1 colon = test system: DLD-1 colon
DMS 114 small cell lung = test system: DMS 114 small cell lung
DMS 273 small cell lung = test system: DMS 273 small cell lung
EKVX NSCLC = test system: EKVX NSCLC
HCC-2998 colon = test system: HCC-2998 colon
HCT-116 colon = test system: HCT-116 colon
HCT-15 colon = test system: HCT-15 colon
HL-60(TB) leukemia = test system: HL-60(TB) leukemia
HOP-18 NSCLC = test system: HOP-18 NSCLC
HOP-92 NSCLC = test system: HOP-92 NSCLC
HT29 colon = test system: HT29 colon
IGROV1 ovarian = test system: IGROV1 ovarian
K-562 leukemia = test system: K-562 leukemia
KM12 colon = test system: KM12 colon
KM20L2 colon = test system: KM20L2 colon
LOX IMVI melanoma = test system: LOX IMVI melanoma
LXFL 529 NSCLC = test system: LXFL 529 NSCLC
M14 melanoma = test system: M14 melanoma
M19-MEL melanoma = test system: M19-MEL melanoma
MOLT-4 leukemia = test system: MOLT-4 leukemia
NCI-H226 lung = test system: NCI-H226 lung
NCI-H23 lung = test system: NCI-H23 lung
OVCAR-3 ovarian = test system: OVCAR-3 ovarian
OVCAR-4 ovarian = test system: OVCAR-4 ovarian
OVCAR-8 ovarian = test system: OVCAR-8 ovarian
RPMI-8226 leukemia = test system: RPMI-8226 leukemia
SF-295 CNS = test system: SF-295 CNS
SF-539 CNS = test system: SF-539 CNS
SK-MEL-2 melanoma = test system: SK-MEL-2 melanoma
SK-MEL-28 melanoma = test system: SK-MEL-28 melanoma
SK-MEL-5 melanoma = test system: SK-MEL-5 melanoma
SK-OV-3 ovarian = test system: SK-OV-3 ovarian
SN12C renal = test system: SN12C renal
SNB-19 CNS = test system: SNB-19 CNS
SNB-75 CNS = test system: SNB-75 CNS
SNB-78 CNS = test system: SNB-78 CNS
SW-620 colon = test system: SW-620 colon
TK-10 renal = test system: TK-10 renal
U251 CNS = test system: U251 CNS
UACC-62 melanoma = test system: UACC-62 melanoma
UO-31 renal = test system: UO-31 renal
CAKI-1 renal = test system: CAKI-1 renal
HOP-62 NSCLC = test system: HOP-62 NSCLC
MALME-3M melanoma = test system: MALME-3M melanoma
NCI-H460 lung = test system: NCI-H460 lung
NCI-H522 lung = test system: NCI-H522 lung
OVCAR-5 ovarian = test system: OVCAR-5 ovarian
RXF 393 renal = test system: RXF 393 renal
SF-268 CNS = test system: SF-268 CNS
SR leukemia = test system: SR leukemia
XF 498 CNS = test system: XF 498 CNS

COc1nc(=O)n(COC(CO)CN2C(=O)c3ccccc3C2=O)cc1Cc1cccc(OCc2ccccc2)c1 (centres undefined)
TGI (A549 NSCLC): 75.8 µM
TGI (ACHN renal): 59.8 µM
TGI (CCRF-CEM leukemia): 60.2 µM
TGI (COLO 205 colon): 37.4 µM
TGI (DLD-1 colon): > 100 µM
TGI (DMS 114 small cell lung): 59.1 µM
TGI (DMS 273 small cell lung): 45.4 µM
TGI (EKVX NSCLC): > 100 µM
TGI (HCC-2998 colon): 43 µM
TGI (HCT-116 colon): > 100 µM
TGI (HCT-15 colon): > 100 µM
TGI (HL-60(TB) leukemia): 41.8 µM
TGI (HOP-18 NSCLC): 72.5 µM
TGI (HOP-92 NSCLC): 45.2 µM
TGI (HT29 colon): > 100 µM
TGI (IGROV1 ovarian): 58.8 µM
TGI (K-562 leukemia): 60.1 µM
TGI (KM12 colon): 91.3 µM
TGI (KM20L2 colon): 55.7 µM
TGI (LOX IMVI melanoma): 41.5 µM
TGI (LXFL 529 NSCLC): > 100 µM
TGI (M14 melanoma): 43.6 µM
TGI (M19-MEL melanoma): 45.2 µM
TGI (MOLT-4 leukemia): 49.4 µM
TGI (NCI-H226 lung): 54.2 µM
TGI (NCI-H23 lung): > 100 µM
TGI (OVCAR-3 ovarian): 58.9 µM
TGI (OVCAR-4 ovarian): 57.8 µM
TGI (OVCAR-8 ovarian): > 100 µM
TGI (RPMI-8226 leukemia): 42.3 µM
TGI (SF-295 CNS): 48.9 µM
TGI (SF-539 CNS): 34.2 µM
TGI (SK-MEL-2 melanoma): 31.3 µM
TGI (SK-MEL-28 melanoma): 36.2 µM
TGI (SK-MEL-5 melanoma): 30.5 µM
TGI (SK-OV-3 ovarian): 90.6 µM
TGI (SN12C renal): 58.5 µM
TGI (SNB-19 CNS): > 100 µM
TGI (SNB-75 CNS): 46.2 µM
TGI (SNB-78 CNS): > 100 µM
TGI (SW-620 colon): > 100 µM
TGI (TK-10 renal): > 100 µM
TGI (U251 CNS): 51.8 µM
TGI (UACC-62 melanoma): 28.5 µM
TGI (UO-31 renal): 52.4 µM

O=C(O)c1cc2c(ncc3c(=O)n(-c4ccccc4)[nH]c32)s1
TGI (A549 NSCLC): > 100 µM
TGI (ACHN renal): > 100 µM
TGI (CAKI-1 renal): > 100 µM
TGI (CCRF-CEM leukemia): > 100 µM
TGI (COLO 205 colon): > 100 µM
TGI (DLD-1 colon): > 100 µM
TGI (DMS 114 small cell lung): > 100 µM
TGI (DMS 273 small cell lung): > 100 µM
TGI (EKVX NSCLC): > 100 µM
TGI (HCC-2998 colon): > 100 µM
TGI (HCT-116 colon): > 100 µM
TGI (HCT-15 colon): > 100 µM
TGI (HOP-18 NSCLC): > 100 µM
TGI (HOP-62 NSCLC): > 100 µM
TGI (HOP-92 NSCLC): > 100 µM
TGI (HT29 colon): > 100 µM
TGI (IGROV1 ovarian): > 100 µM
TGI (K-562 leukemia): > 100 µM
TGI (KM12 colon): > 100 µM
TGI (KM20L2 colon): > 100 µM
TGI (LOX IMVI melanoma): > 100 µM
TGI (LXFL 529 NSCLC): > 100 µM
TGI (M14 melanoma): > 100 µM
TGI (M19-MEL melanoma): > 100 µM
TGI (MALME-3M melanoma): > 100 µM
TGI (MOLT-4 leukemia): > 100 µM
TGI (NCI-H226 lung): > 100 µM
TGI (NCI-H23 lung): > 100 µM
TGI (NCI-H460 lung): > 100 µM
TGI (NCI-H522 lung): > 100 µM
TGI (OVCAR-3 ovarian): > 100 µM
TGI (OVCAR-4 ovarian): > 100 µM
TGI (OVCAR-5 ovarian): > 100 µM
TGI (OVCAR-8 ovarian): > 100 µM
TGI (RPMI-8226 leukemia): > 100 µM
TGI (RXF 393 renal): > 100 µM
TGI (SF-268 CNS): > 100 µM
TGI (SF-539 CNS): > 100 µM
TGI (SK-MEL-2 melanoma): > 100 µM
TGI (SK-MEL-28 melanoma): > 100 µM
TGI (SK-OV-3 ovarian): > 100 µM
TGI (SN12C renal): > 100 µM
TGI (SR leukemia): > 100 µM
TGI (SW-620 colon): > 100 µM
TGI (TK-10 renal): > 100 µM
TGI (U251 CNS): > 100 µM
TGI (UACC-62 melanoma): > 100 µM
TGI (UO-31 renal): > 100 µM
TGI (XF 498 CNS): > 100 µM
